Reference: patent US11124526B2, “Crystalline beta-lactamase inhibitor” (Allecra Therapeutics SAS, priority 2013, dated 2021)
In brackets after ≈: the same amount, converted by molar mass.

Experiments:
Type in all cases: physicochemical
[1] = Inventors' findings on hygroscopicity and stability of amorphous versus crystalline compound of formula (I)
[2] = Solubility of amorphous compound of formula (I) in selected solvents (slurry stirred 4 hours, mother liquor by HPLC); conditions: thermodynamic from solid
Description: Solubility values of solvents were calculated with respect to the HPLC response factor, set out in FIG. 12.
HPLC response factor was calculated for the amorphous compound of formula (I) using samples dissolved in acetonitrile/water 9/1 with the following method: • Column: ZORBAX Eclipse XDB-C18 (150×4.6 mm, 5 μm) • Temperature: 25° C. • Mobile phase: A: 0.05M Sodium ortophosphate/water, B: Acetonitrile • Gradient: from 5% of B to 95% of B in 10 min • Detector: UV λ=220 nm
Slurries of the amorphous compound of formula (I) in the selected solvents were prepared and stirred at 20° C. and 40° C. for 4 hours. • Samples of each slurry were filtered and the mother liquors injected in HPLC. • The solid residual were isolated and analyzed by XRPD. • The results are summarized in the following Table 4.

[3] = Solubility assessment of Form C in saline physiological solution (HPLC)
Description: The Form C solubility was calculated by HPLC employing a dedicated walk-up method. The product obtained by the scaled up procedure described in Example 13 was used to perform the experiments.
1.9 g of the product was suspended in 1 ml of commercial physiologic solution (0.9% of NaCl) at ambient temperature (˜20 ° C.). The suspension resulted slightly opaque and quite viscous after 30 min. After this time the suspension was sampled and the sample injected in HPLC to determine its concentration. After 2 hrs stirring the solid residue was completely dissolved. The addition of more solid was not performed to avoid the gelatinisation of the viscous solution. A sample was taken and injected in HPLC to determine its concentration. The solution was stirred other 3 hrs and sampled again. The 5 hrs sample was also injected in HPLC to determine its concentration.

[4] = Stability tests of Form F stored at controlled temperature and RH
[5] = Hygroscopicity of Form F (% weight change at 25° C. and 80% RH)
Description: The hygroscopicity was calculated using the following equation: % Weight Change=[(W2−W1)W1]*100 wherein, • W1 is weight of sample at the start of the experiment; and • W2 is weight of sample at 25° C. and 80% RH in the first absorption cycle.

[6] = Dynamic Vapor Sorption (DVS) of Form F; conditions: 25° C.
Description: Kinetic moisture sorption measurements were performed at 25° C. and at relative humidity (RH % target as follows: • From 40% RH to 90% RH • Form 90% RH to 0% RH • From 0% RH to 90% RH • From 90% RH to 0% RH The kinetic moisture sorption measurement was performed at 25° C. and in a RH % range described in the following: • From 40% RH to 90% RH • Form 90% RH to 0% RH • From 0% RH to 90% RH • From 90% RH to 0% RH The experiment is performed on 10-15 mg of sample and the equilibrium criterion is set as dm/dt<0.002% w/w in 10 min with a maximum step time of 240 min.

[7] = 25° C. and 80% RH, first absorption cycle

Q: Which “Hygroscopicity (statement in words)” value [1] does the source give for `C[n+]1ccn(C[C@@]2(C)[C@H](C(=O)[O-])N3C(=O)C[C@H]3S2(=O)=O)n1` [amorphous compound of formula (I), (2S,3S,5R)-3-methyl-3-((3-methyl-1H-1,2,3-triazol-3-ium-1-yl)methyl)-7-oxo-4-thia-1-azabicyclo[3.2.0]heptane-2-carboxylate 4,4-dioxide] here?
A: The value was “hygroscopic”.

Q: And the Stability when stored ([1]; stored at room temperature)?
A: The Stability when stored was “limited stability”.

Q: And the solubility at 4 h ([2]; organic solvent or mixture, 1-butanol, 20° C.)?
A: Its solubility at 4 h is 97 mg/mL.

Q: And the solubility at 4 h ([2]; organic solvent or mixture, 1-butanol, 40° C.)?
A: The solubility at 4 h was 167 mg/mL.

Q: And the solubility at 4 h ([2]; organic solvent or mixture, 1-propanol, 20° C.)?
A: Its solubility at 4 h is 295 mg/mL.

Q: And the solubility at 4 h ([2]; organic solvent or mixture, 1-propanol, 40° C.)?
A: The solubility at 4 h was greater than 400 mg/mL.

Q: What about the solubility at 4 h ([2]; organic solvent or mixture, 2-propanol, 20° C.) of the same compound?
A: The solubility at 4 h was 23 mg/mL.

Q: What about the solubility at 4 h ([2]; organic solvent or mixture, 2-propanol, 40° C.) of the same compound?
A: Its solubility at 4 h is 28 mg/mL.

Q: And the solubility at 4 h ([2]; organic solvent or mixture, Acetonitrile, 20° C.)?
A: The solubility at 4 h was 6 mg/mL.

Q: What about the solubility at 4 h ([2]; organic solvent or mixture, Dimethylsulfoxide, 20° C.) of the same compound?
A: The solubility at 4 h was greater than 400 mg/mL.

Q: What about the solubility at 4 h ([2]; organic solvent or mixture, Dimethylsulfoxide, 40° C.) of the same compound?
A: The solubility at 4 h was greater than 400 mg/mL.

Q: And the solubility at 4 h ([2]; organic solvent or mixture, Ethanol, 20° C.)?
A: Its solubility at 4 h is 420 mg/mL.

Q: What about the solubility at 4 h ([2]; organic solvent or mixture, Ethanol, 40° C.) of the same compound?
A: The solubility at 4 h was greater than 420 mg/mL.

Q: And the solubility at 4 h ([2]; organic solvent or mixture, Ethanol/acetone 20%, 20° C.)?
A: The solubility at 4 h was greater than 300 mg/mL.

Q: And the solubility at 4 h ([2]; organic solvent or mixture, Ethanol/acetone 40%, 20° C.)?
A: Its solubility at 4 h is greater than 300 mg/mL.

Q: And the solubility at 4 h ([2]; organic solvent or mixture, Ethanol/methyl tert-butyl ether 20%, 20° C.)?
A: Its solubility at 4 h is 52 mg/mL.

Q: And the solubility at 4 h ([2]; organic solvent or mixture, Ethanol/methyl tert-butyl ether 40%, 20° C.)?
A: Its solubility at 4 h is 16 mg/mL.

Q: What about the solubility at 4 h ([2]; organic solvent or mixture, Methanol, 20° C.) of the same compound?
A: Its solubility at 4 h is greater than 400 mg/mL.

Q: What about the solubility at 4 h ([2]; organic solvent or mixture, Methanol, 40° C.) of the same compound?
A: Its solubility at 4 h is greater than 400 mg/mL.

Q: And the solubility at 4 h ([2]; Water, 20° C.)?
A: Its solubility at 4 h is greater than 400 mg/mL.

Q: And the solubility at 4 h ([2]; Water, 40° C.)?
A: Its solubility at 4 h is greater than 400 mg/mL.

Q: With `C[n+]1ccn(C[C@@]2(C)[C@H](C(=O)[O-])N3C(=O)C[C@H]3S2(=O)=O)n1` [Form C, (2S,3S,5R)-3-methyl-3-((3-methyl-1H-1,2,3-triazol-3-ium-1-yl)methyl)-7-oxo-4-thia-1-azabicyclo[3.2.0]heptane-2-carboxylate 4,4-dioxide] as the compound, how does the “Formation of impurities in physiologic solution (HPLC traces)” value ([3]; 0.9% NaCl, ambient temperature, up to 5 hrs) read?
A: The value was “did not show the formation of significant impurities”.

Q: What about the solubility at 30 min ([3]; physiologic solution (0.9% NaCl), saline or isotonic, thermodynamic from solid, physiologic solution (0.9% of NaCl), ~20 ° C., timepoint 30 mins, read-out: Solubility (mg/ml) at ambient temperature) of the same compound?
A: The solubility at 30 min was 772 mg/mL (≈ 2460 mM).

Q: What about the solubility at 2 h ([3]; physiologic solution (0.9% NaCl), saline or isotonic, thermodynamic from solid, physiologic solution (0.9% of NaCl), ~20 ° C., timepoint 2 hours, solid completely dissolved, read-out: Solubility (mg/ml) at ambient temperature) of the same compound?
A: The solubility at 2 h was greater than 883 mg/mL.

Q: What about the solubility at 5 h ([3]; physiologic solution (0.9% NaCl), saline or isotonic, thermodynamic from solid, physiologic solution (0.9% of NaCl), ~20 ° C., timepoint 5 hours, read-out: Solubility (mg/ml) at ambient temperature) of the same compound?
A: The solubility at 5 h was greater than 812 mg/mL.

Q: Which results are given for `C[n+]1ccn(C[C@@]2(C)[C@H](C(=O)[O-])N3C(=O)C[C@H]3S2(=O)=O)n1` [Form F, (2S,3S,5R)-3-methyl-3-((3-methyl-1H-1,2,3-triazol-3-ium-1-yl)methyl)-7-oxo-4-thia-1-azabicyclo[3.2.0]heptane-2-carboxylate 4,4-dioxide]?
A: Stability on storage (appearance) ([4]; after a day at 25° C. and 60% RH): becomes a viscous liquid; Stability on storage (appearance) ([4]; after a day at 60° C. and 75% RH): becomes a viscous liquid; Hygroscopicity classification [5, 7]: very hygroscopic; Mass increase (% Weight Change) [5, 7]: greater than 15%; Appearance at high humidity ([5]; high humidity): becomes a viscous liquid; Relative humidity up to which the form is stable (DVS) [6]: approximately 50 % RH; Weight increase (DVS) ([6]; at 90% RH): greater than 50 % w/w; Water sorption behaviour after the weight increase at 90% RH (DVS) ([6]; following cycles): releases and takes water reversibly
